Experimental data taken from PubChem BioAssay (NCI).
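Five compound concentrations were applied to cells in 96-well plates for 48 hours; endpoints were derived by simple linear interpolation of the resulting dose-response curve. GI50 is the concentration that inhibits growth by half. TGI: concentration producing complete growth inhibition.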

Columns and labels:
Test in all cases: NCI anticancer screen, dose series, 48 h
RPMI-8226 leukemia = system: RPMI-8226 leukemia
M14 melanoma = system: M14 melanoma
SF-295 CNS = system: SF-295 CNS
HT29 colon = system: HT29 colon
NCI-H23 lung = system: NCI-H23 lung
UO-31 renal = system: UO-31 renal
UACC-62 melanoma = system: UACC-62 melanoma
OVCAR-8 ovarian = system: OVCAR-8 ovarian
RXF 393 renal = system: RXF 393 renal
HOP-92 NSCLC = system: HOP-92 NSCLC
DU-145 prostate = system: DU-145 prostate
EKVX NSCLC = system: EKVX NSCLC
KM12 colon = system: KM12 colon
CCRF-CEM leukemia = system: CCRF-CEM leukemia
COLO 205 colon = system: COLO 205 colon
786-0 renal = system: 786-0 renal
LOX IMVI melanoma = system: LOX IMVI melanoma
UACC-257 melanoma = system: UACC-257 melanoma
NCI-H226 lung = system: NCI-H226 lung
A549 NSCLC = system: A549 NSCLC
MDA-MB-435 = system: MDA-MB-435
HCT-116 colon = system: HCT-116 colon
SK-MEL-2 melanoma = system: SK-MEL-2 melanoma
IGROV1 ovarian = system: IGROV1 ovarian
SNB-19 CNS = system: SNB-19 CNS
PC-3 prostate = system: PC-3 prostate
MCF7 breast = system: MCF7 breast
SN12C renal = system: SN12C renal
SK-OV-3 ovarian = system: SK-OV-3 ovarian
HL-60(TB) leukemia = system: HL-60(TB) leukemia
K-562 leukemia = system: K-562 leukemia
HCT-15 colon = system: HCT-15 colon
SF-268 CNS = system: SF-268 CNS
MDA-N = system: MDA-N
HCC-2998 colon = system: HCC-2998 colon
OVCAR-5 ovarian = system: OVCAR-5 ovarian
NCI/ADR-RES ovarian = system: NCI/ADR-RES ovarian
A498 renal = system: A498 renal
HOP-62 NSCLC = system: HOP-62 NSCLC
ACHN renal = system: ACHN renal
MDA-MB-231 breast = system: MDA-MB-231 breast
HS 578T breast = system: HS 578T breast
OVCAR-3 ovarian = system: OVCAR-3 ovarian
SNB-75 CNS = system: SNB-75 CNS
SK-MEL-28 melanoma = system: SK-MEL-28 melanoma
SW-620 colon = system: SW-620 colon
SR leukemia = system: SR leukemia
OVCAR-4 ovarian = system: OVCAR-4 ovarian
T-47D breast = system: T-47D breast
SF-539 CNS = system: SF-539 CNS
MALME-3M melanoma = system: MALME-3M melanoma
CAKI-1 renal = system: CAKI-1 renal
NCI-H460 lung = system: NCI-H460 lung
MOLT-4 leukemia = system: MOLT-4 leukemia
U251 CNS = system: U251 CNS
TK-10 renal = system: TK-10 renal
SK-MEL-5 melanoma = system: SK-MEL-5 melanoma
NCI-H522 lung = system: NCI-H522 lung
BT-549 breast = system: BT-549 breast

SMILES: C=C(C)C1CC/C(C)=C/CCC2(C)OC2CC/C(CO)=C\C1O (stereo not given)
- TGI (RPMI-8226 leukemia): > 100 µM
- TGI (M14 melanoma): > 100 µM
- TGI (SF-295 CNS): > 100 µM
- TGI (HT29 colon): > 100 µM
- TGI (NCI-H23 lung): > 100 µM
- TGI (UO-31 renal): > 100 µM
- TGI (UACC-62 melanoma): > 100 µM
- TGI (OVCAR-8 ovarian): > 100 µM
- TGI (RXF 393 renal): > 100 µM
- TGI (HOP-92 NSCLC): > 100 µM
- TGI (DU-145 prostate): > 100 µM
- TGI (EKVX NSCLC): > 100 µM
- TGI (KM12 colon): > 100 µM
- TGI (CCRF-CEM leukemia): > 100 µM
- TGI (COLO 205 colon): > 100 µM
- TGI (786-0 renal): > 100 µM
- TGI (LOX IMVI melanoma): > 100 µM
- TGI (UACC-257 melanoma): > 100 µM
- TGI (NCI-H226 lung): > 100 µM
- TGI (A549 NSCLC): > 100 µM
- TGI (MDA-MB-435): > 100 µM
- TGI (HCT-116 colon): > 100 µM
- TGI (SK-MEL-2 melanoma): > 100 µM
- TGI (IGROV1 ovarian): > 100 µM
- TGI (SNB-19 CNS): > 100 µM
- TGI (PC-3 prostate): > 100 µM
- TGI (MCF7 breast): > 100 µM
- TGI (SN12C renal): > 100 µM
- TGI (SK-OV-3 ovarian): > 100 µM
- TGI (HL-60(TB) leukemia): > 100 µM
- TGI (K-562 leukemia): > 100 µM
- TGI (HCT-15 colon): > 100 µM
- TGI (SF-268 CNS): > 100 µM
- TGI (MDA-N): > 100 µM
- TGI (HCC-2998 colon): > 100 µM
- TGI (OVCAR-5 ovarian): > 100 µM
- TGI (NCI/ADR-RES ovarian): > 100 µM
- TGI (A498 renal): > 100 µM
- TGI (HOP-62 NSCLC): > 100 µM
- TGI (ACHN renal): > 100 µM
- TGI (MDA-MB-231 breast): > 100 µM
- TGI (HS 578T breast): 53.5 µM
- TGI (OVCAR-3 ovarian): > 100 µM
- TGI (SNB-75 CNS): > 100 µM
- TGI (SK-MEL-28 melanoma): > 100 µM
- TGI (SW-620 colon): > 100 µM
- TGI (SR leukemia): > 100 µM
- TGI (OVCAR-4 ovarian): > 100 µM
- TGI (T-47D breast): > 100 µM
- TGI (SF-539 CNS): > 100 µM
- TGI (MALME-3M melanoma): > 100 µM
- TGI (CAKI-1 renal): > 100 µM
- TGI (NCI-H460 lung): > 100 µM
- TGI (MOLT-4 leukemia): > 100 µM
- TGI (U251 CNS): > 100 µM
- TGI (TK-10 renal): > 100 µM

SMILES: O=C1CC[C@H](N2C(=O)c3cccc4c(Cc5ccc(CN6CCOCC6)cc5)ccc2c34)C(=O)N1
- GI50 (RPMI-8226 leukemia): 9.18 µM
- TGI (RPMI-8226 leukemia): > 100 µM
- GI50 (M14 melanoma): 62 µM
- TGI (M14 melanoma): > 100 µM
- GI50 (SF-295 CNS): 19.3 µM
- TGI (SF-295 CNS): > 100 µM
- GI50 (HT29 colon): 28.9 µM
- TGI (HT29 colon): > 100 µM
- GI50 (NCI-H23 lung): 29.4 µM
- TGI (NCI-H23 lung): > 100 µM
- GI50 (UO-31 renal): 48.7 µM
- TGI (UO-31 renal): > 100 µM
- GI50 (OVCAR-8 ovarian): 56.6 µM
- TGI (OVCAR-8 ovarian): > 100 µM
- GI50 (RXF 393 renal): 2.45 µM
- TGI (RXF 393 renal): > 100 µM
- GI50 (HOP-92 NSCLC): 8.14 µM
- TGI (HOP-92 NSCLC): > 100 µM
- GI50 (DU-145 prostate): > 100 µM
- TGI (DU-145 prostate): > 100 µM
- GI50 (EKVX NSCLC): 17.9 µM
- TGI (EKVX NSCLC): > 100 µM
- GI50 (KM12 colon): 79 µM
- TGI (KM12 colon): > 100 µM
- GI50 (CCRF-CEM leukemia): 55.9 µM
- TGI (CCRF-CEM leukemia): > 100 µM
- GI50 (COLO 205 colon): 45.8 µM
- TGI (COLO 205 colon): > 100 µM
- GI50 (786-0 renal): > 100 µM
- TGI (786-0 renal): > 100 µM
- GI50 (LOX IMVI melanoma): 26.1 µM
- TGI (LOX IMVI melanoma): > 100 µM
- GI50 (UACC-257 melanoma): 22.5 µM
- TGI (UACC-257 melanoma): > 100 µM
- GI50 (NCI-H226 lung): 11.7 µM
- TGI (NCI-H226 lung): > 100 µM
- GI50 (A549 NSCLC): 52.6 µM
- TGI (A549 NSCLC): > 100 µM
- GI50 (MDA-MB-435): 36.9 µM
- TGI (MDA-MB-435): > 100 µM
- GI50 (HCT-116 colon): 33.6 µM
- TGI (HCT-116 colon): > 100 µM
- GI50 (SK-MEL-2 melanoma): > 100 µM
- TGI (SK-MEL-2 melanoma): > 100 µM
- GI50 (IGROV1 ovarian): > 100 µM
- TGI (IGROV1 ovarian): > 100 µM
- GI50 (SNB-19 CNS): > 100 µM
- TGI (SNB-19 CNS): > 100 µM
- GI50 (PC-3 prostate): 40.4 µM
- TGI (PC-3 prostate): > 100 µM
- GI50 (MCF7 breast): 23.7 µM
- TGI (MCF7 breast): > 100 µM
- GI50 (SN12C renal): 63.4 µM
- TGI (SN12C renal): > 100 µM
- GI50 (SK-OV-3 ovarian): > 100 µM
- TGI (SK-OV-3 ovarian): > 100 µM
- GI50 (HL-60(TB) leukemia): 24.1 µM
- TGI (HL-60(TB) leukemia): > 100 µM
- GI50 (K-562 leukemia): 10.2 µM
- TGI (K-562 leukemia): > 100 µM
- GI50 (HCT-15 colon): 41.8 µM
- TGI (HCT-15 colon): > 100 µM
- GI50 (SF-268 CNS): > 100 µM
- TGI (SF-268 CNS): > 100 µM
- GI50 (HCC-2998 colon): > 100 µM
- TGI (HCC-2998 colon): > 100 µM
- GI50 (OVCAR-5 ovarian): > 100 µM
- TGI (OVCAR-5 ovarian): > 100 µM
- GI50 (NCI/ADR-RES ovarian): 42 µM
- TGI (NCI/ADR-RES ovarian): > 100 µM
- GI50 (A498 renal): > 100 µM
- TGI (A498 renal): > 100 µM
- GI50 (HOP-62 NSCLC): 52.3 µM
- TGI (HOP-62 NSCLC): > 100 µM
- GI50 (ACHN renal): 78.6 µM
- TGI (ACHN renal): > 100 µM
- GI50 (MDA-MB-231 breast): 79.5 µM
- TGI (MDA-MB-231 breast): > 100 µM
- GI50 (HS 578T breast): 46.8 µM
- TGI (HS 578T breast): > 100 µM
- GI50 (OVCAR-3 ovarian): 65.6 µM
- TGI (OVCAR-3 ovarian): > 100 µM
- GI50 (SK-MEL-5 melanoma): 7.32 µM
- TGI (SK-MEL-5 melanoma): 26.4 µM
- GI50 (SNB-75 CNS): 2.56 µM
- TGI (SNB-75 CNS): > 100 µM
- GI50 (SK-MEL-28 melanoma): 75.1 µM
- TGI (SK-MEL-28 melanoma): > 100 µM
- GI50 (SW-620 colon): > 100 µM
- TGI (SW-620 colon): > 100 µM
- GI50 (SR leukemia): 4.03 µM
- TGI (SR leukemia): > 100 µM
- GI50 (OVCAR-4 ovarian): 21.9 µM
- TGI (OVCAR-4 ovarian): > 100 µM
- GI50 (NCI-H522 lung): 12.3 µM
- TGI (NCI-H522 lung): > 100 µM
- GI50 (T-47D breast): 10.7 µM
- TGI (T-47D breast): > 100 µM
- GI50 (SF-539 CNS): > 100 µM
- TGI (SF-539 CNS): > 100 µM
- GI50 (MALME-3M melanoma): 30 µM
- TGI (MALME-3M melanoma): > 100 µM
- GI50 (CAKI-1 renal): 62.1 µM
- TGI (CAKI-1 renal): > 100 µM
- GI50 (NCI-H460 lung): 35.2 µM
- TGI (NCI-H460 lung): > 100 µM
- GI50 (MOLT-4 leukemia): 27.6 µM
- TGI (MOLT-4 leukemia): > 100 µM
- GI50 (U251 CNS): 60.3 µM
- TGI (U251 CNS): > 100 µM
- GI50 (BT-549 breast): 17.3 µM
- TGI (BT-549 breast): > 100 µM
- GI50 (TK-10 renal): > 100 µM
- TGI (TK-10 renal): > 100 µM
